Laboratory results reported in patent US7235379B2, “Method and medium for the detection/identification of microorgranisms with esterase activity” (Bio Merieux, priority 2000, dated 2007).
Where “and” joins values, the source holds several entries; their conditions need not be identical. Equal entries are not always repeated. Structures can show the parent of a compound that is named as a salt.

What was measured:
Type in all cases: cell-based
[1] = tested on: Serratia marcescens 038; test: Ex.2 colony coloration, 5-bromo-3-indolyl nonanoate, methanol/bile salts, MacConkey; as to intensity of coloration: key: 0: no activity; 0.1: trace of coloration; 0.5: very pale coloration; 1: distinct coloration of low intensity; 2: clear coloration of medium intensity; 3: intense coloration; 4: very intense coloration
Procedure: (§1) The esterase substrate tested is 5-bromo-3-indolyl nonanoate. A 25 g/l stock solution of substrate is prepared in methanol to which 5 g/l of bile salts have been added. A sufficient volume is added to a supercooled MacConkey medium (without neutral red) to give a substrate concentration of 500 mg/l.
(§2) Microorganisms originating from the Applicant's collection were inoculated onto this medium from a 0.5 McFarland suspension by isolation in three quadrants. The dishes were incubated at 37° C. for 48 hours. The colonies formed were examined visually after 24 and 48 hours of incubation. The coloration of these colonies and the intensity of this coloration were noted.
(§3) The intensity of coloration corresponds to an arbitrary scale defined as follows:

[2] = tested on: Salmonella typhi 118
[3] = tested on: Salmonella arizonae 018; test: Ex.1 colony coloration, 5-bromo-3-indolyl nonanoate, DMSO/Tween 20, MacConkey
Procedure: (§4) The esterase substrate tested is 5-bromo-3-indolyl nonanoate. A 40 g/l stock solution of substrate is prepared in a mixture of 40% dimethyl sulfoxide and 60% Tween 20. A sufficient volume is added to a supercooled MacConkey medium (without neutral red) to give a substrate concentration of 500 mg/l.
as §2, §3

[4] = tested on: Candida tropicalis 030; test: Ex.3 colony coloration, 5-bromo-4-chloro-3-indolyl nonanoate 250 mg/l, DMSO/Tween 20; also: key: 0: no activity; 0.1: trace of coloration; 0.5: very pale coloration; 1: distinct coloration of low intensity; 2: clear coloration of medium intensity; 3: intense coloration; 4: very intense coloration
Procedure: (§5) The esterase substrate tested is 5-bromo-4-chloro-3-indolyl nonanoate. A 40 g/l stock solution of substrate is prepared in a mixture of 40% dimethyl sulfoxide and 60% Tween 20. A sufficient volume is added to a supercooled MacConkey medium (without neutral red) to give a substrate concentration of 250 mg/l.
as §2, §3

[5] = tested on: Salmonella spp. 017; test: Ex.4 colony coloration, 5-bromo-3-indolyl nonanoate, DMSO/Tween 20, MacConkey; settings: 8 ml/l Tergitol 4
Procedure: as §4
This medium is then separated into eight portions. […] Microorganisms originating from the Applicant's collection were inoculated onto this medium from a 0.5 McFarland suspension by isolation in three quadrants. The dishes were incubated at 37° C. for 48 hours. The colonies formed were examined visually after 24 and 48 hours of incubation. The coloration of these colonies and the intensity of this coloration were noted.

[6] = tested on: Pseudomonas aeruginosa 165; test: Ex.2 colony coloration, 5-bromo-3-indolyl nonanoate, methanol/bile salts, MacConkey
Procedure: as §1, §2, §3

[7] = tested on: Listeria monocytogenes 023; test: Ex.3 colony coloration, 5-bromo-4-chloro-3-indolyl nonanoate 250 mg/l, DMSO/Tween 20; also: key: 0: no activity; 0.1: trace of coloration; 0.5: very pale coloration; 1: distinct coloration of low intensity; 2: clear coloration of medium intensity; 3: intense coloration; 4: very intense coloration
Procedure: as §5, §2, §3

[8] = tested on: Escherichia coli 002; test: Ex.4 colony coloration, 5-bromo-3-indolyl nonanoate, DMSO/Tween 20, MacConkey; parameters: key: —: absence of colour or intensity; settings: 8 ml/l Tergitol 4
[9] = tested on: Salmonella enteritidis 002; test: Ex.2 colony coloration, 5-bromo-3-indolyl nonanoate, methanol/bile salts, MacConkey
Procedure: as §1, §2, §3

[10] = tested on: Pseudomonas aeruginosa 165; test: Ex.1 colony coloration, 5-bromo-3-indolyl nonanoate, DMSO/Tween 20, MacConkey
Procedure: as §4, §2, §3

[11] = tested on: Staphylococcus epidermidis 009; test: Ex.3 colony coloration, 5-bromo-4-chloro-3-indolyl nonanoate 250 mg/l, DMSO/Tween 20; also: key: 0: no activity; 0.1: trace of coloration; 0.5: very pale coloration; 1: distinct coloration of low intensity; 2: clear coloration of medium intensity; 3: intense coloration; 4: very intense coloration
Procedure: as §5, §2, §3

[12] = tested on: Serratia marcescens 038; test: Ex.1 colony coloration, 5-bromo-3-indolyl nonanoate, DMSO/Tween 20, MacConkey
Procedure: as §4, §2, §3

[13] = tested on: Enterobacter cloacae 086; test: as above
Procedure: as §4, §2, §3

## CCCCC(CC)CCC(CC(C)C)OS(=O)(=O)O (stereo not drawn) [Tergitol 4, 7-ethyl-2-methyl-4-undecanoate hydrogensulfate or its sodium salt]
[1]; 2 ml/l, 24 h
  color: gray
  intensity of coloration: 2
[1]; 2 ml/l, 48 h
  color: gray
  intensity of coloration: 3
[1]; 4 ml/l, 24 h
  color: gray
  intensity of coloration: 2
[1]; 4 ml/l, 48 h
  color: gray
  intensity of coloration: 4
[1]; 8 ml/l, 24 h
  color: gray
  intensity of coloration: 2
[1]; 8 ml/l, 48 h
  color: gray
  intensity of coloration: 4
[1]; 16 ml/l, 24 h
  color: gray
  intensity of coloration: 2
[1]; 16 ml/l, 48 h
  color: gray
  intensity of coloration: 4
[2]
  color: gray
[2]; sodium salt
  intensity of coloration: 3 and 3.5
[3]; 2 ml/l, 24 h
  color: gray
  intensity of coloration: 2
[3]; 2 ml/l, 48 h
  color: gray
  intensity of coloration: 2.5
[3]; 4 ml/l, 24 h
  color: gray
  intensity of coloration: 3.5
[3]; 4 ml/l, 48 h
  color: gray
  intensity of coloration: 3.5
[3]; 8 ml/l, 24 h
  color: gray
  intensity of coloration: 3.5
[3]; 8 ml/l, 48 h
  color: gray
  intensity of coloration: 3.5
[3]; 16 ml/l, 24 h
  color: gray
  intensity of coloration: 3.5
[3]; 16 ml/l, 48 h
  color: gray
  intensity of coloration: 4
[4]; 0.001 ml/l, 24 h
  intensity of coloration: 2
[4]; 0.001 ml/l, 48 h
  intensity of coloration: 3
[4]; 0.01 ml/l, 24 h
  intensity of coloration: 2
[4]; 0.01 ml/l, 48 h
  intensity of coloration: 3
[4]; 0.1 ml/l, 24 h
  intensity of coloration: 2
[4]; 0.1 ml/l, 48 h
  intensity of coloration: 3
[4]; 1 ml/l (1st col), 24 h
  intensity of coloration: 0.5
[4]; 1 ml/l (1st col), 48 h
  intensity of coloration: 3
[4]; 1 ml/l (2nd col), 24 h
  intensity of coloration: 0.5
[4]; 1 ml/l (2nd col), 48 h
  intensity of coloration: 3
[5]; 24 h
  color: gray
  intensity of coloration: 2.5
[5]; 48 h
  color: gray
  intensity of coloration: 3.5
[6]; 2 ml/l, 24 h
  color: gray
  intensity of coloration: 3.5
[6]; 2 ml/l, 48 h
  color: gray
  intensity of coloration: 3.5
[6]; 4 ml/l, 24 h
  color: gray
  intensity of coloration: 4
[6]; 4 ml/l, 48 h
  color: gray
  intensity of coloration: 4
[6]; 8 ml/l, 24 h
  color: gray
  intensity of coloration: 4
[6]; 8 ml/l, 48 h
  color: gray
  intensity of coloration: 4
[6]; 16 ml/l, 24 h
  color: gray
  intensity of coloration: 4
[6]; 16 ml/l, 48 h
  color: gray
  intensity of coloration: 4
[7]; 0.001 ml/l, 24 h
  intensity of coloration: 2
[7]; 0.001 ml/l, 48 h
  intensity of coloration: 2
[7]; 0.01 ml/l, 24 h
  intensity of coloration: 2.5
[7]; 0.01 ml/l, 48 h
  intensity of coloration: 3
[7]; 0.1 ml/l, 24 h
  intensity of coloration: 2
[7]; 0.1 ml/l, 48 h
  intensity of coloration: 3
[7]; 1 ml/l (1st col), 24 h
  intensity of coloration: 2
[7]; 1 ml/l (1st col), 48 h
  intensity of coloration: 3
[7]; 1 ml/l (2nd col), 24 h
  intensity of coloration: 2
[7]; 1 ml/l (2nd col), 48 h
  intensity of coloration: 3
[8]; 24 h
  color: —
[8]; 48 h
  color: —
[9]; 2 ml/l, 24 h
  color: gray
  intensity of coloration: 2
[9]; 2 ml/l, 48 h
  color: gray
  intensity of coloration: 3
[9]; 4 ml/l, 24 h
  color: gray
  intensity of coloration: 3
[9]; 4 ml/l, 48 h
  color: gray
  intensity of coloration: 3
[9]; 8 ml/l, 24 h
  color: gray
  intensity of coloration: 0.5
[9]; 8 ml/l, 48 h
  color: gray
  intensity of coloration: 2
[9]; 16 ml/l, 24 h
  color: gray
  intensity of coloration: 0.1
[9]; 16 ml/l, 48 h
  color: gray
  intensity of coloration: 1
[10]; 2 ml/l, 24 h
  color: gray
  intensity of coloration: 3.5
[10]; 2 ml/l, 48 h
  color: gray
  intensity of coloration: 3.5
[10]; 4 ml/l, 24 h
  color: gray
  intensity of coloration: 4
[10]; 4 ml/l, 48 h
  color: gray
  intensity of coloration: 4
[10]; 8 ml/l, 24 h
  color: gray
  intensity of coloration: 4
[10]; 8 ml/l, 48 h
  color: gray
  intensity of coloration: 4
[10]; 16 ml/l, 24 h
  color: gray
  intensity of coloration: 4
[10]; 16 ml/l, 48 h
  color: gray
  intensity of coloration: 4
[11]; 0.001 ml/l, 24 h
  intensity of coloration: 2
[11]; 0.001 ml/l, 48 h
  intensity of coloration: 2
[11]; 0.01 ml/l, 24 h
  intensity of coloration: 3
[11]; 0.01 ml/l, 48 h
  intensity of coloration: 3
[11]; 0.1 ml/l, 24 h
  intensity of coloration: 2
[11]; 0.1 ml/l, 48 h
  intensity of coloration: 3
[11]; 1 ml/l (1st col), 24 h
  intensity of coloration: 2
[11]; 1 ml/l (1st col), 48 h
  intensity of coloration: 2
[11]; 1 ml/l (2nd col), 24 h
  intensity of coloration: 0.5
[11]; 1 ml/l (2nd col), 48 h
  intensity of coloration: 3
[12]; 2 ml/l, 24 h
  color: gray
  intensity of coloration: 2
[12]; 2 ml/l, 48 h
  color: gray
  intensity of coloration: 3
[12]; 4 ml/l, 24 h
  color: gray
  intensity of coloration: 2
[12]; 4 ml/l, 48 h
  color: gray
  intensity of coloration: 4
[12]; 8 ml/l, 24 h
  color: gray
  intensity of coloration: 2
[12]; 8 ml/l, 48 h
  color: gray
  intensity of coloration: 4
[12]; 16 ml/l, 24 h
  color: gray
  intensity of coloration: 2
[12]; 16 ml/l, 48 h
  color: gray
  intensity of coloration: 4
[13]; 2 ml/l, 24 h
  color: gray
  intensity of coloration: 0.5
[13]; 2 ml/l, 48 h
  color: gray
  intensity of coloration: 2
[13]; 4 ml/l, 24 h
  color: gray
  intensity of coloration: 1
[13]; 4 ml/l, 48 h
  color: gray
  intensity of coloration: 3
[13]; 8 ml/l, 24 h
  color: gray
  intensity of coloration: 0.5
[13]; 8 ml/l, 48 h
  color: gray
  intensity of coloration: 1
[13]; 16 ml/l, 24 h
  color: gray
  intensity of coloration: 0.5
[13]; 16 ml/l, 48 h
  color: gray
  intensity of coloration: 1
